# Source: PubChem BioAssay AID248 (DTP/NCI, 2004)
# Several values for one entry are separate records, joined by “and”; a condition that tells them apart may be missing. Identical values can stand only once. Toxic doses and inconclusive results are not listed.
# Test system: L1210 leukemia ip in BDF1 mice, survival T/C
# Test: NCI In Vivo Anticancer Drug Screen. Data for tumor model L1210 Leukemia (intraperitoneal) in B6D2F1 (BDF1) mice
# Details: endpoint: mean survival time, higher = longer survival
# Procedure, shortened: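 Tumor cells were implanted, animals were treated, and survival was followed. The result divides the treated measurement by the vehicle-control measurement.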
# [1] = dose: 100.0 mg/kg/injection, schedule: Q04DX003 (ip), vehicle: Klucel (hydroxypropylcellulose) (HPC)
# [2] = dose: 200.0 mg/kg/injection, schedule: Q04DX003 (ip), vehicle: Klucel (hydroxypropylcellulose) (HPC)
# [3] = dose: 400.0 mg/kg/injection, schedule: Q04DX003 (ip), vehicle: Klucel (hydroxypropylcellulose) (HPC)
# [4] = dose: 25.0 mg/kg/injection, schedule: Q01DX009 (ip), vehicle: Klucel (hydroxypropylcellulose) (HPC)
# [5] = dose: 50.0 mg/kg/injection, schedule: Q01DX009 (ip), vehicle: Klucel (hydroxypropylcellulose) (HPC)
# [6] = dose: 50.0 mg/kg/injection, schedule: Q01DX001 (ip), vehicle: carboxymethylcellulose (CMC)
# [7] = dose: 200.0 mg/kg/injection, schedule: Q01DX001 (ip), vehicle: carboxymethylcellulose (CMC)
# [8] = dose: 400.0 mg/kg/injection, schedule: Q01DX001 (ip), vehicle: saline
smiles,measurement,setting,value
CCOC(=O)CCC(NC(=O)N(CCCl)CCCl)C(=O)OCC (configuration not stated),T/C,"dose: 250.0 mg/kg/injection, schedule: Q01DX Z (ip), vehicle: water",90 % of control
same,T/C,"dose: 400.0 mg/kg/injection, schedule: Q01DX009 (ip), vehicle: saline",183 % of control
COc1ccc(C(=O)C(C)C(O)(C(F)(F)F)C(F)(F)F)cc1 (configuration not stated),T/C,"dose: 75.0 mg/kg/injection, schedule: Q01DX009 (ip), vehicle: Klucel (hydroxypropylcellulose) (HPC)",97 % of control
same,T/C,[1],111 % of control
same,T/C,"dose: 150.0 mg/kg/injection, schedule: Q01DX009 (ip), vehicle: Klucel (hydroxypropylcellulose) (HPC)",101 % of control
same,T/C,[2],100 % of control
same,T/C,"dose: 300.0 mg/kg/injection, schedule: Q01DX009 (ip), vehicle: Klucel (hydroxypropylcellulose) (HPC)",92 % of control
same,T/C,[3],100 % of control
NNC(=S)NCCc1ccccc1,T/C,[4],101 % of control
same,T/C,[5],105 % of control
O=S(=O)(c1ccccc1)N1CC1CBr (configuration not stated),T/C,"dose: 100.0 mg/kg/injection, schedule: Q01DX001 (ip), vehicle: other",105 % of control
same,T/C,"dose: 200.0 mg/kg/injection, schedule: Q01DX001 (ip), vehicle: other",100 % of control
same,T/C,"dose: 400.0 mg/kg/injection, schedule: Q01DX001 (ip), vehicle: other",108 % of control
CC(=O)NC1CON(C(C)=O)C1=O (configuration not stated),T/C,[1],97 % of control
same,T/C,[2],103 % of control
same,T/C,[3],103 % of control
Nc1nc2c(ncn2C2CC(CO)C(O)C2O)c(=O)[nH]1 (configuration not stated),T/C,"dose: 9.5 mg/kg/injection, schedule: Q01DX009 (ip), vehicle: other",101 % of control
same,T/C,"dose: 19.0 mg/kg/injection, schedule: Q04DX003 (ip), vehicle: other",94 % of control
same,T/C,"dose: 38.0 mg/kg/injection, schedule: Q04DX003 (ip), vehicle: other",92 % of control
same,T/C,"dose: 75.0 mg/kg/injection, schedule: Q01DX001 (ip), vehicle: other",88 % of control
COc1cc(C(=O)c2cocc2C(=O)c2ccc3c(c2)OCO3)cc(OC)c1OC,T/C,"dose: 50.0 mg/kg/injection, schedule: Q01DX009 (ip), vehicle: acetone",110 % of control
same,T/C,"dose: 100.0 mg/kg/injection, schedule: Q01DX009 (ip), vehicle: acetone",94 % of control
same,T/C,"dose: 200.0 mg/kg/injection, schedule: Q01DX009 (ip), vehicle: acetone",112 % of control
same,T/C,"dose: 400.0 mg/kg/injection, schedule: Q01DX009 (ip), vehicle: acetone",110 % of control
Cc1ccc2c(CCCC(=O)O)c(C)c(=O)oc2c1,T/C,"dose: 100.0 mg/kg/injection, schedule: Q01DX001 (ip), vehicle: Klucel (hydroxypropylcellulose) (HPC)",98 % of control
same,T/C,[1],103 % of control
same,T/C,"dose: 200.0 mg/kg/injection, schedule: Q01DX001 (ip), vehicle: Klucel (hydroxypropylcellulose) (HPC)",98 % of control
same,T/C,[2],96 % of control
same,T/C,"dose: 400.0 mg/kg/injection, schedule: Q01DX001 (ip), vehicle: Klucel (hydroxypropylcellulose) (HPC)",100 % of control
same,T/C,[3],88 % of control
N/C(=N\[N+](=O)[O-])N(Cc1ccccc1)/N=C/c1ccccc1,T/C,"dose: 87.5 mg/kg/injection, schedule: Q04DX003 (ip), vehicle: Klucel (hydroxypropylcellulose) (HPC)",92 % of control
same,T/C,"dose: 175.0 mg/kg/injection, schedule: Q04DX003 (ip), vehicle: Klucel (hydroxypropylcellulose) (HPC)",92 % of control
same,T/C,"dose: 350.0 mg/kg/injection, schedule: Q04DX003 (ip), vehicle: Klucel (hydroxypropylcellulose) (HPC)",88 % of control
O=C1c2ccccc2-c2ccc(N3C(=O)c4ccccc4C3=O)cc21,T/C,"dose: 16.5 mg/kg/injection, schedule: Q01DX001 (ip), vehicle: saline with Tween-80",88 % of control
same,T/C,"dose: 37.5 mg/kg/injection, schedule: Q01DX001 (ip), vehicle: saline with Tween-80",92 % of control
same,T/C,"dose: 50.0 mg/kg/injection, schedule: Q01DX001 (ip), vehicle: saline with Tween-80",95 % of control
same,T/C,"dose: 100.0 mg/kg/injection, schedule: Q01DX001 (ip), vehicle: saline with Tween-80",91 % of control
O=C(Nc1ccc(Cl)cc1)N1CC1,T/C,"dose: 12.5 mg/kg/injection, schedule: Q04DX003 (ip), vehicle: Klucel (hydroxypropylcellulose) (HPC)",92 % of control
same,T/C,"dose: 25.0 mg/kg/injection, schedule: Q04DX003 (ip), vehicle: Klucel (hydroxypropylcellulose) (HPC)",94 % of control
same,T/C,"dose: 50.0 mg/kg/injection, schedule: Q04DX003 (ip), vehicle: Klucel (hydroxypropylcellulose) (HPC)",98 % of control
Nc1cccc2c1C(=O)c1ccccc1-2,T/C,"dose: 100.0 mg/kg/injection, schedule: Q01DX009 (ip), vehicle: saline with Tween-80",97 % of control
same,T/C,"dose: 200.0 mg/kg/injection, schedule: Q01DX009 (ip), vehicle: saline with Tween-80",103 % of control
same,T/C,"dose: 400.0 mg/kg/injection, schedule: Q01DX009 (ip), vehicle: saline with Tween-80",97 % of control
COc1ccc(OC)c(C(=O)CCC(=O)O)c1,T/C,[6],94 % of control
same,T/C,"dose: 100.0 mg/kg/injection, schedule: Q01DX001 (ip), vehicle: carboxymethylcellulose (CMC)",110 % of control
same,T/C,[7],100 % of control
same,T/C,"dose: 400.0 mg/kg/injection, schedule: Q01DX001 (ip), vehicle: carboxymethylcellulose (CMC)",107 % of control
OCC(O)C1OC(c2ccccc2)OC1C(O)CO (configuration not stated),T/C,"dose: 100.0 mg/kg/injection, schedule: Q04DX003 (ip), vehicle: saline",105 % of control
same,T/C,"dose: 200.0 mg/kg/injection, schedule: Q04DX003 (ip), vehicle: saline",92 % of control
same,T/C,"dose: 400.0 mg/kg/injection, schedule: Q04DX003 (ip), vehicle: saline",99 % of control
CN1CCN(C(=O)C2C(c3ccccc3)C2c2ccc(Cl)c(Cl)c2)CC1 (configuration not stated),T/C,"dose: 12.5 mg/kg/injection, schedule: Q04DX002 (ip), vehicle: saline with Tween-80",95 % of control and 98 % of control
same,T/C,"dose: 25.0 mg/kg/injection, schedule: Q04DX002 (ip), vehicle: saline with Tween-80",103 % of control
same,T/C,"dose: 50.0 mg/kg/injection, schedule: Q04DX002 (ip), vehicle: saline with Tween-80",92 % of control and 88 % of control
CCOC(=N)c1ccc(C(=O)OCCOC)cc1,T/C,"dose: 100.0 mg/kg/injection, schedule: Q01DX001 (ip), vehicle: saline",97 % of control
same,T/C,"dose: 200.0 mg/kg/injection, schedule: Q01DX001 (ip), vehicle: saline",97 % of control
same,T/C,[8],97 % of control
CS(=O)(=O)OCCF,T/C,"dose: 0.25 mg/kg/injection, schedule: Q01DX009 (ip), vehicle: saline",101 % of control
same,T/C,"dose: 0.5 mg/kg/injection, schedule: Q01DX009 (ip), vehicle: saline",103 % of control
same,T/C,"dose: 1.0 mg/kg/injection, schedule: Q01DX009 (ip), vehicle: saline",103 % of control
same,T/C,"dose: 2.5 mg/kg/injection, schedule: Q01DX009 (ip), vehicle: carboxymethylcellulose (CMC)",103 % of control
same,T/C,"dose: 2.5 mg/kg/injection, schedule: Q01DX009 (ip), vehicle: saline",103 % of control
same,T/C,"dose: 5.0 mg/kg/injection, schedule: Q01DX009 (ip), vehicle: carboxymethylcellulose (CMC)",108 % of control
same,T/C,"dose: 6.25 mg/kg/injection, schedule: Q04DX003 (ip), vehicle: saline with Tween-80",114 % of control
same,T/C,"dose: 9.0 mg/kg/injection, schedule: Q01DX009 (ip), vehicle: saline",92 % of control
same,T/C,"dose: 10.5 mg/kg/injection, schedule: Q01DX015 (ip), vehicle: saline",97 % of control
same,T/C,"dose: 10.8 mg/kg/injection, schedule: Q01DX015 (ip), vehicle: saline",100 % of control
same,T/C,"dose: 12.5 mg/kg/injection, schedule: Q01DX001 (ip), vehicle: acetone",103 % of control
same,T/C,"dose: 12.5 mg/kg/injection, schedule: Q01DX009 (ip), vehicle: acetone",106 % of control
same,T/C,"dose: 18.0 mg/kg/injection, schedule: Q01DX015 (ip), vehicle: saline",114 % of control
same,T/C,"dose: 20.0 mg/kg/injection, schedule: Q01DX009 (ip), vehicle: carboxymethylcellulose (CMC)",87 % of control
same,T/C,"dose: 25.0 mg/kg/injection, schedule: Q01DX001 (ip), vehicle: acetone",116 % of control
same,T/C,"dose: 25.0 mg/kg/injection, schedule: Q01DX001 (ip), vehicle: saline",94 % of control
same,T/C,"dose: 30.0 mg/kg/injection, schedule: Q01DX001 (ip), vehicle: saline",98 % of control
same,T/C,"dose: 30.0 mg/kg/injection, schedule: Q01DX015 (ip), vehicle: saline",113 % of control and 91 % of control
same,T/C,"dose: 44.0 mg/kg/injection, schedule: Q01DX001 (ip), vehicle: saline",106 % of control and 122 % of control
same,T/C,"dose: 50.0 mg/kg/injection, schedule: Q01DX001 (ip), vehicle: acetone",103 % of control
same,T/C,[6],117 % of control
same,T/C,"dose: 50.0 mg/kg/injection, schedule: Q01DX001 (ip), vehicle: saline",102 % of control and 109 % of control
same,T/C,[7],97 % of control
same,T/C,[8],87 % of control
c1ccc2c3c(sc2c1)CNCC3,T/C,[4],107 % of control
same,T/C,[5],101 % of control
